Legend:
mouse TRPC4β = biological target: T1, mouse TRPC4β (Mus musculus, UniProt Q9QUQ5); experiment: FLIPR Ca2+ influx assay (Fluo-4) with 365/447 nm photoswitching, HEK293 stably expressing mouse TRPC4β; format: cell-based; conditions: for EC50: Z* = mostly-Z PSS under 365 nm LED, Fluo-4-loaded cells, read-out: Agonistic EC50 (365 nm) TRPC4
T1 construct: expressed in transfected cells; host or cells: HEK293 (ATCC CRL 1573), stably transfected, tetracycline-induced
T1 sequence (Q9QUQ5 1-890 isoform Q9QUQ5-2): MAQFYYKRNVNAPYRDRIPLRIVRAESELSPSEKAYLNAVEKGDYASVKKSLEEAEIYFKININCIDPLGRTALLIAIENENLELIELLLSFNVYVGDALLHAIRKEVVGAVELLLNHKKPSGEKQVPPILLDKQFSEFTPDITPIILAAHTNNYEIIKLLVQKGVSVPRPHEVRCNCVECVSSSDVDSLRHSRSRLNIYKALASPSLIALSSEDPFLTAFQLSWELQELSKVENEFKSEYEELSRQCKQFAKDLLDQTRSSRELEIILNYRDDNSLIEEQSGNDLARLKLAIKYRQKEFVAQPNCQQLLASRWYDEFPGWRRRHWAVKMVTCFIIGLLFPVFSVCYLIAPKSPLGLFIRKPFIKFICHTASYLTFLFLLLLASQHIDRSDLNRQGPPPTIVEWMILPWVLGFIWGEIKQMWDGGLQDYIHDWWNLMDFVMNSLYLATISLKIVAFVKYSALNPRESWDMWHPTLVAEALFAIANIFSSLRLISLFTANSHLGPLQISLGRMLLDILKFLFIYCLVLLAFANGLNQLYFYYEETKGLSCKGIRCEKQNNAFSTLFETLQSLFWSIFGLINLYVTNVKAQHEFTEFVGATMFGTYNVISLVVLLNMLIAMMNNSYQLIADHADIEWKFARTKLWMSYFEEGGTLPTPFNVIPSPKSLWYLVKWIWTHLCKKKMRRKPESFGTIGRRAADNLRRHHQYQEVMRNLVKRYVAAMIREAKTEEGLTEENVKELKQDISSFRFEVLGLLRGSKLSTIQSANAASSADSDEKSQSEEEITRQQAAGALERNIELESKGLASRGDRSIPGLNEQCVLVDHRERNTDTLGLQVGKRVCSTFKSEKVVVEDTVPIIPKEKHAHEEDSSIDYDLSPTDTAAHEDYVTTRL
From the text: We initially screened for the photoswitchability of activity in cells using a fluorometric imaging plate reader (FLIPR) calcium flux assay, with HEK293 cells stably expressing mouse TRPC4β or mouse TRPC5. Note, however, that the parallel-throughput FLIPR setup is limited to use fixed light-emitting diodes at 365 nm (good Z) and 447 nm (suboptimal E), which, combined with the slowness of the onset and recovery of the fluorescence readout for calcium, causes the FLIPR results to underestimate the reagents’ true speed, degree and completion of TRPC chromocontrol (shown later). […]
3 Cultured Cell Lines (primarily for Fig. 1 and Fig. 2)
3.1 FLIPR Ca2+ influx assay in cell suspensions.
We initially screened for photoswitchability of activity in cells, using a fluorometric imaging plate reader (FLIPR) calcium flux assay, with human embryonic kidney cell line HEK293 stably transfected to express mouse TRPC4β- or TRPC5-CFP fusion protein (HEKmTRPC4β-CFP / HEKmTRPC5-CFP, HEK293 obtained from ATCC CRL 1573). The FLIPR setup provides high-content data, but it is limited to using LED wavelengths of 365 nm (best-Z) and 447 nm (suboptimal-E), while imaging at 470 nm excitation (Fluo-4 AM as Ca2+ indicator; this imaging light counteracts both PSSs). Therefore, we expected the FLIPR results to under-estimate the true chromocontrol power accessible to the reagents.
Cells were grown to 70%-90% confluency in a 75-cm2 culture flask, trypsinised, washed and resuspended in BSA-containing (0.1%) HBS, and supplemented with 3 µM Fluo-4/AM. Stably TRPC-transfected cells were induced with tetracycline 24 h prior to the experiments.42,43 After incubation at 37°C for 30 min [Fluo-4 loading], cells were again washed, resuspended, and dispensed (40 µl/well) into black pigmented, clear-bottom 384-well plates (Greiner µ-clear). To image the Fluo-4 fluorescence during the application and photoswitching of test compounds, these plates were first mounted to a Tecan Fluent 480 (Tecan, Männedorf, Switzerland) liquid handling device, equipped with a 384-tip multichannel arm and a gripper arm. A custom-made plate-imaging device was used for photoswitching during fluorescence imaging, which features LED-based excitation modules (365 nm and 447 nm used here for photoswitching, and 470 nm used here for Fluo-4 readout) projected onto the bottom of the microwell plate, with a cooled scientific complementary metal oxide sensor (sCMOS) camera (Zyla 5.5, Andor, Belfast, UK) equipped with a Nokton 42.5 mm f/0.95 (Voigtlaender, Fürth, Germany) for detection. The LEDs were controlled with an Arduino device and constant current drivers (1 A for 365 and 470 nm LEDs; 3 A for 447 nm LED); detection was under the control of Micromanager 2.0 software. Compounds were serially diluted and applied to the Fluo-4-loaded cell suspensions inside this custom plate-imaging device, then fluorescence intensities (under 470 nm excitation) were continuously recorded during programmed illuminations e.g. with alternating 365 nm and 447 nm phases.
Concentration-response curves for the Z-isomers (channel activation) were then constructed from the maximal signals during 365 nm phases, after a suitable number of "priming" cycles to allow the system to reach stable performance (Supplementary Fig. 13).
All experiments were conducted as a minimum of 3 independent experiments with each experiment averaging data in technical duplicates.
Cellular TRPC4 photoswitching: HEK cell Ca2+ influx photomodulation […]
Supplementary Figure 12. […]

[1] = test system: Th+ neurons of Th-GCaMP6f (WT) mice; experiment: GCaMP6f Ca2+ imaging of Th+ neurons in arcuate nucleus brain slices with 355 nm photoswitching, Th-GCaMP6f (WT) mice; conditions: for EC50: Mus musculus, Neuron, read-out: EC50 of Z-isomer-induced Ca2+ responses (ΔAUC) in Th+ neurons, WT
From the text: slices through the ARC of mice expressing the Ca2+ indicator GCaMP6f in Th+ neurons (Fig. 4),
we investigated (1) whether Ca2+ responses at endogenous TRPC5 expression levels can be
TRPC5 expression using TRPC5-deficient brain slices, (3) whether a dose dependence could be
detected, and (4) whether there are properties in channel activity that can be distinguished between
concentration-response measurements (Fig. 5d).

Structure (SMILES)	EC50 (mouse TRPC4β) [µM]	Cells with sustained high Ca2+ signal lasting up to 3 min (count) ([1]; 500 nM, 355 nm pulse)	Cells with sustained high Ca2+ signal lasting up to 3 min ([1]; 500 nM, 355 nm pulse) [%]	EC50 [1] [µM]	Activity of Z isomer on TRPC4 (mouse TRPC4β; into the micromolar range, 365 nm)	Effect of E isomer alone on TRPC4 (mouse TRPC4β; 12 pM to […], before 365-nm illumination)
Cn1c(=O)n(CCCO)c(=O)c2c1nc(Oc1ccc(N=Nc3ccccc3)c(OC(F)(F)F)c1)n2Cc1ccc(Cl)cc1 [AzPico]	0.003	13 out of 31	–	–	–	–
Cn1c(=O)n(CCCO)c(=O)c2c1nc(Oc1ccc(N=Nc3ccccc3)c(Cl)c1)n2Cc1ccc(Cl)cc1 [AzHC]	–	14 of 33	42	0.13 ± 0.1	–	–
Cn1c(=O)n(CCCO)c(=O)c2c1nc(Oc1ccc(/N=N\c3ccccc3)c(Cl)c1)n2Cc1ccc(Cl)cc1 [Z*-AzHC]	> 1	–	–	0.13 ± 0.1	completely inactive	–
Cn1c(=O)n(CCCO)c(=O)c2c1nc(Oc1ccc(/N=N/c3ccccc3)c(OC(F)(F)F)c1)n2Cc1ccc(Cl)cc1 [E-AzPico]	–	–	–	–	–	no effect
